Experimental data taken from patent publication US5900488A, “Method for treating mycosis using imidazolylacetonitrile derivatives” (Nihon Nohyaku Co., Ltd., priority 1995, dated 1999).
Converted amounts (≈) assume the structure as drawn. Like-named read-outs stand apart in the source and are kept apart here.

How the values were obtained:
Trichophyton rubrum = assay: In vitro activity against Trichophyton rubrum, MIC by twofold macro-broth dilution (Test Example 1); assay type: cell-based
Procedure: (§1) Minimum inhibitory concentrations (MICs) were determined by the twofold macro-broth dilution method with Sabouraud's glucose broth which constituted with 1% bactopeptone and 4% glucose. To each tube containing 9.8 ml of the broth, 0.1 ml of each testing compound dissolved in DMSO and 0.1 ml of a conidial suspension (1×10^6 conidia/ml) were added. The fungal growth was observed after incubation for 7 days at 27° C. The MIC was determined as the lowest drug concentration which prevented a visible fungal growth.

Aspergillus fumigatus = assay: In vitro antifungal activity against Aspergillus fumigatus, MIC by twofold agar dilution (Test Example 4); assay type: cell-based; settings: read-out: MIC
Procedure: MICs were determined by the twofold agar dilution method with casitone agar which constituted with 0.9% bactocasitone, 1% bacto-yeast extract, 2% glucose, 0.1% KH2 PO4, 0.1% Na2 HPO4, 1% Na3 C6 H5 O7 and 1.6% agar. A loopful of each inoculum (1×10^6 conidia/ml) was streaked onto the agar plate containing a compound, and a fungal growth was observed after incubation for 48 hours at 35° C. The MIC was determined as the lowest drug concentration which prevented a visible fungal growth.

Candida albicans = assay: In vitro antifungal activity against Candida albicans, MIC by twofold micro-broth dilution (Test Example 3); assay type: cell-based
Procedure: MICs were determined by the twofold micro-broth dilution method with RPMI 1640 buffered with morphorino-propanesulfonic acid to a final molarity of 0.165M (pH 7.0). One hundred μl of a yeast cell suspension (1 to 5×10^3 cells/ml) and 100 μl of the compound-containing medium were pipetted into each well flat-bottomed microtiter plates. After incubation for 48 hours at 35° C., the turbidity of each well was measured at 630 nm.

[1] = tested on: Trichophyton mentagrophytes; assay: In vitro activity against Trichophyton mentagrophytes, MIC by twofold macro-broth dilution (Test Example 1); assay type: cell-based; settings: Trichophyton mentagrophytes, 7 days at 27° C.
Procedure: as §1

dermatophytes = assay: Antifungal activity against dermatophytes compared with racemic mixtures (general statement); settings: especially highly sensitive strains
[2] = IFO5467, 168 h, strain IFO 5467, 7 days at 27° C.
[3] = IFO5807, 168 h, strain IFO 5807, 7 days at 27° C.
[4] = IFO5808, 168 h, strain IFO 5808, 7 days at 27° C.
[5] = IFO6203, 168 h, strain IFO 6203, 7 days at 27° C.
[6] = IFO6204, 168 h, strain IFO 6204, 7 days at 27° C.
[7] = IFO9185, 168 h, strain IFO 9185, 7 days at 27° C.
[8] = TIMM1822, 168 h, strain TIMM 1822, 7 days at 27° C.
[9] = TIMM1823, 168 h, strain TIMM 1823, 7 days at 27° C.
[10] = TIMM1824, 168 h, strain TIMM 1824, 7 days at 27° C.
[11] = TIMM1830, 168 h, strain TIMM 1830, 7 days at 27° C.
[12] = IFO0197, strain IFO 0197, 80% inhibition, 48 hours at 35° C., pH 7.0, read-out: MIC
[13] = IFO0579, strain IFO 0579, 80% inhibition, 48 hours at 35° C., pH 7.0, read-out: MIC
[14] = IFO1269, strain IFO 1269, 80% inhibition, 48 hours at 35° C., pH 7.0, read-out: MIC
[15] = IFO1270, strain IFO 1270, 80% inhibition, 48 hours at 35° C., pH 7.0, read-out: MIC
[16] = IFO1385, strain IFO 1385, 80% inhibition, 48 hours at 35° C., pH 7.0, read-out: MIC
[17] = IFO1386, strain IFO 1386, 80% inhibition, 48 hours at 35° C., pH 7.0, read-out: MIC
[18] = TIMM3163, strain TIMM 3163, 80% inhibition, 48 hours at 35° C., pH 7.0, read-out: MIC
[19] = TIMM3164, strain TIMM 3164, 80% inhibition, 48 hours at 35° C., pH 7.0, read-out: MIC
[20] = TIMM3165, strain TIMM 3165, 80% inhibition, 48 hours at 35° C., pH 7.0, read-out: MIC
[21] = TIMM3166, strain TIMM 3166, 80% inhibition, 48 hours at 35° C., pH 7.0, read-out: MIC
[22] = IFO5466, 168 h, strain IFO 5466
[23] = IFO5809, 168 h, strain IFO 5809
[24] = IFO5810, 168 h, strain IFO 5810
[25] = IFO5811, 168 h, strain IFO 5811
[26] = IFO5929, 168 h, strain IFO 5929
[27] = TIMM1189, 168 h, strain TIMM 1189
[28] = TIMM1814, 168 h, strain TIMM 1814
[29] = TIMM1815, 168 h, strain TIMM 1815
[30] = TIMM1817, 168 h, strain TIMM 1817
[31] = TIMM2789, 168 h, strain TIMM 2789

MIC (Trichophyton rubrum; [2])	MIC (Trichophyton rubrum; [3])	MIC (Trichophyton rubrum; [4])	MIC (Trichophyton rubrum; [5])	MIC (Trichophyton rubrum; [6])	MIC (Trichophyton rubrum; [7])	MIC (Trichophyton rubrum; [8])	MIC (Trichophyton rubrum; [9])	MIC (Trichophyton rubrum; [10])	MIC (Trichophyton rubrum; [11])	MIC (Candida albicans; [12])	MIC (Candida albicans; [13])	MIC (Candida albicans; [14])	MIC (Candida albicans; [15])	MIC (Candida albicans; [16])	MIC (Candida albicans; [17])	MIC (Candida albicans; [18])	MIC (Candida albicans; [19])	MIC (Candida albicans; [20])	MIC (Candida albicans; [21])	Structure (SMILES)	also measured
0.0025 µg/mL (≈ 0.00706 µM)	0.0025 µg/mL (≈ 0.00706 µM)	0.0025 µg/mL (≈ 0.00706 µM)	0.0013 µg/mL (≈ 0.00367 µM)	0.0025 µg/mL (≈ 0.00706 µM)	0.0013 µg/mL (≈ 0.00367 µM)	0.00063 µg/mL (≈ 0.00178 µM)	0.0013 µg/mL (≈ 0.00367 µM)	0.0013 µg/mL (≈ 0.00367 µM)	0.00063 µg/mL (≈ 0.00178 µM)	0.0625 µg/mL (≈ 0.176 µM)	0.0313 µg/mL (≈ 0.0883 µM)	0.0625 µg/mL (≈ 0.176 µM)	0.25 µg/mL (≈ 0.706 µM)	0.0625 µg/mL (≈ 0.176 µM)	0.125 µg/mL (≈ 0.353 µM)	16 µg/mL (≈ 45.2 µM)	0.5 µg/mL (≈ 1.41 µM)	2 µg/mL (≈ 5.65 µM)	1 µg/mL (≈ 2.82 µM)	N#C/C(=C1/SC[C@@H](c2ccc(Cl)cc2Cl)S1)n1ccnc1 [Compound (B), R-(-)-(E)-[4-(2,4-dichlorophenyl)-1,3-dithiolan-2-ylidene]-1-imidazolylacetonitrile]	sensitivity (in words) (Trichophyton rubrum): highly sensitive; MIC (Aspergillus fumigatus; TIMM0063, strain TIMM 0063, 48 hours at 35° C.): 0.00063 µg/mL (≈ 0.00178 µM); MIC (Aspergillus fumigatus; TIMM0078, strain TIMM 0078, 48 hours at 35° C.): 0.00063 µg/mL (≈ 0.00178 µM); MIC (Aspergillus fumigatus; TIMM1728, strain TIMM 1728, 48 hours at 35° C.): ≤ 0.00031 µg/mL; MIC (Aspergillus fumigatus; TIMM1767, strain TIMM 1767, 48 hours at 35° C.): 0.00063 µg/mL (≈ 0.00178 µM); MIC [1, 22]: 0.02 µg/mL (≈ 0.0565 µM); MIC [1, 23]: 0.005 µg/mL (≈ 0.0141 µM); MIC [1, 24]: 0.005 µg/mL (≈ 0.0141 µM); MIC [1, 25]: 0.01 µg/mL (≈ 0.0282 µM); MIC [1, 26]: 0.01 µg/mL (≈ 0.0282 µM); MIC [1, 27]: 0.01 µg/mL (≈ 0.0282 µM); MIC [1, 28]: 0.02 µg/mL (≈ 0.0565 µM); MIC [1, 29]: 0.02 µg/mL (≈ 0.0565 µM); MIC [1, 30]: 0.01 µg/mL (≈ 0.0282 µM); MIC [1, 31]: 0.0025 µg/mL (≈ 0.00706 µM); antifungal activity relative to the racemic mixtures (dermatophytes): several times
																				OC(Cn1cncn1)(Cn1cncn1)c1ccc(F)cc1F [FCZ, 2(2,4-Difluorophenyl)-1,3-bis(1H-1,2,4-triazol-1-yl)-2-propanol]	MIC (Candida albicans; IFO0197, 48 h, pH 7): 0.25 µg/mL (≈ 0.816 µM); MIC (Candida albicans; IFO0579, 48 h, pH 7): 0.125 µg/mL (≈ 0.408 µM); MIC (Candida albicans; IFO1269, 48 h, pH 7): 0.25 µg/mL (≈ 0.816 µM); MIC (Candida albicans; IFO1270, 48 h, pH 7): 0.25 µg/mL (≈ 0.816 µM); MIC (Candida albicans; IFO1385, 48 h, pH 7): 0.25 µg/mL (≈ 0.816 µM); MIC (Candida albicans; IFO1386, 48 h, pH 7): 0.5 µg/mL (≈ 1.63 µM); MIC (Candida albicans; TIMM3163, 48 h, pH 7): 16 µg/mL (≈ 52.2 µM); MIC (Candida albicans; TIMM3164, 48 h, pH 7): 2 µg/mL (≈ 6.53 µM); MIC (Candida albicans; TIMM3165, 48 h, pH 7): > 32 µg/mL; MIC (Candida albicans; TIMM3166, 48 h, pH 7): 8 µg/mL (≈ 26.1 µM)
0.005 µg/mL (≈ 0.0172 µM)	0.005 µg/mL (≈ 0.0172 µM)	0.005 µg/mL (≈ 0.0172 µM)	0.0025 µg/mL (≈ 0.00858 µM)	0.005 µg/mL (≈ 0.0172 µM)	0.0025 µg/mL (≈ 0.00858 µM)	0.0025 µg/mL (≈ 0.00858 µM)	0.0025 µg/mL (≈ 0.00858 µM)	0.0013 µg/mL (≈ 0.00446 µM)	0.00063 µg/mL (≈ 0.00216 µM)	> 32 µg/mL	> 32 µg/mL	4 µg/mL (≈ 13.7 µM)	> 32 µg/mL	> 32 µg/mL	> 32 µg/mL	> 32 µg/mL	> 32 µg/mL	> 32 µg/mL	> 32 µg/mL	CN(C/C=C/C#CC(C)(C)C)Cc1cccc2ccccc12 [TBF, (E)N-(6,6-Dimethyl-2-hepten-4-ynyl)-N-methyl-1-naphthalenemethaneamine hyrochloride]	MIC [1, 22]: 0.02 µg/mL (≈ 0.0686 µM); MIC [1, 23]: 0.01 µg/mL (≈ 0.0343 µM); MIC [1, 24]: 0.005 µg/mL (≈ 0.0172 µM); MIC [1, 25]: 0.01 µg/mL (≈ 0.0343 µM); MIC [1, 26]: 0.01 µg/mL (≈ 0.0343 µM); MIC [1, 27]: 0.01 µg/mL (≈ 0.0343 µM); MIC [1, 28]: 0.01 µg/mL (≈ 0.0343 µM); MIC [1, 29]: 0.02 µg/mL (≈ 0.0686 µM); MIC [1, 30]: 0.01 µg/mL (≈ 0.0343 µM); MIC [1, 31]: 0.0025 µg/mL (≈ 0.00858 µM)
